Assay results reported in PubChem BioAssay AID1963856 (Molecular Pharmacology Branch, DTP, NCI, 2024).
Several values for one entry are separate records, joined by “and”; a condition that tells them apart may be missing. Equal entries are not always repeated. Activity calls are given as the source filed them. The calls were made as follows: active = viability on the fitted dose curve at most 10% of control; inactive = the rest.

Test system: LG0567-F671-PDC KRAS tumor spheroid viability
Assay: Anticancer human tumor LG0567-F671-PDC patient-derived lung adenocarcinoma cell line growth inhibition [KRAS2]
Details: spheroids with HUVEC and MSC; for viability, T/C: stronger effect = lower value
Text: Multicellular complex tumor spheroid response to RAS pathway inhibitors in combination with a targeted agents in patient-derived cell lines with oncogenic KRAS variants from multiple cancer types
A high-throughput screen of multi-cell type tumor spheroids was designed to identify active combinations of targeted small molecules and KRAS pathway inhibitors. Complex spheroids include a stromal component modeled by human endothelial cells (HUVEC) and fibroblasts modeled by human mesenchymal stem cells (MSCs). The concentration ranges selected for each drug and investigational agent were based upon clinically achievable concentrations if the clinical Cmax of the agent was known.
Compounds. The drugs and investigational agents: BI-3406 (NSC825286), BAY-293 (NSC824723), batoprotafib (TNO155; NSC825523), sotorasib (AMG 510; NSC818433), MRTX1257 (NSC819558), elimusertib (BAY 1895344; NSC800525), molibresib (GSK525762; NSC774829), temuterkib (LY3214996; NSC803410), venetoclax (NSC766270), alisertib (NSC759677), olaparib (NSC753686), talazoparib (NSC767125), erdafitinib (NSC781556), ipatasertib (NSC767898), cabozantinib (NSC761068), nintedanib (NSC756659), abemaciclib (NSC768073), docetaxel (NSC628503), trametinib (NSC758246), and sapanisertib (NSC764658) were obtained from the National Cancer Institute (NCI) Developmental Therapeutics Program Chemical Repository. The FDA-approved anticancer drug set is available from the Developmental Therapeutics Program. […] The stock solutions were prepared in dimethyl sulfoxide (DMSO, Sigma-Aldrich, St. Louis, MO, cat. D2650) at 800-fold the tested concentration and stored at -70 degrees C prior to their use. All drugs and investigational agents were tested over a range starting from a high concentration at or near the clinical Cmax and decreasing in half-log increments. If the clinical Cmax for an agent had not been determined, the highest concentration tested was 10 microM.
Cell Culture. All cells were maintained in an incubator at 37 degrees C and 5% CO2 with 95% humidity. The PDC lines were cultured according to standard operating procedures established by the NCI PDMR (https://pdmr.cancer.gov/sops/default.htm). Briefly, all PDCs were thawed and cultured in Matrigel-coated flasks prepared with a working solution of 1X Ham's F-12 nutrient mix, without supplementation (Invitrogen, Waltham, MA, cat. 11765054), 100 U/mL penicillin-streptomycin (Invitrogen, cat. 15140122), and 2.5% Matrigel (Corning Inc., Corning, NY, cat. 354248) for the first three passages. All PDCs were cultured in complete DMEM/F-12 media containing advanced DMEM/F-12 (Invitrogen, cat. 12634028), 4.9% defined fetal bovine serum, heat inactivated (HyClone Laboratories Inc., Logan, UT, cat. SH30070.03HI), 389 ng/mL hydrocortisone (Sigma-Aldrich, cat. H4001), 9.7 ng/mL human EGF recombinant protein (Invitrogen, cat. PHG0313), 23.4 microg/mL adenine (Sigma-Aldrich, cat. A2786), 97.3 U/mL penicillin-streptomycin (Invitrogen, cat. 15140122), 1.9 mM L-glutamine (Invitrogen, cat. 25030081), and 9.7 microM Y-27632 dihydrochloride (Tocris Bioscience, Bristol, United Kingdom, cat. 1254). The PDCs were cultured in complete DMEM/F12 media without 9.7 microM Y-27632 dihydrochloride for at least two passages prior to the screen. The established cell line HOP-62 was cultured in RPMI 1640 medium, HEPES (Invitrogen, cat. 22400105) with 10% defined fetal bovine serum (HyClone Laboratories Inc., cat. SH30070.03) and 2 mM L-glutamine (Invitrogen, cat. 25030081). The pooled donor HUVEC were cultured in endothelial cell growth medium 2 (PromoCell, Heidelberg, Germany, cat. C-22011) and the hMSC were cultured in mesenchymal stem cell growth medium 2 (PromoCell, cat. C-28009). For all experiments, HUVEC and hMSC were used at passages </=5, while the malignant cell lines were used at passages </=15. […]

[1] = compound alone, run of 07/12/2021
[2] = compound alone, run of 07/19/2021
[3] = compound alone, run of 07/26/2021
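For IC50 in this document: drug exposure lasted seven days after spheroids formed for three days.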
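For viability, T/C in this document: drug exposure lasted seven days after spheroids formed for three days.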

| SMILES | viability, T/C (compound 0.1 µM) | viability, T/C (compound 0.316 µM) | viability, T/C (compound 1 µM) | viability, T/C (compound 3.16 µM) | viability, T/C (compound 10 µM) | viability, T/C (compound 0.0316 µM) | viability, T/C (compound 0.01 µM) | IC50 (curve of compound) | further results |
| --- | --- | --- | --- | --- | --- | --- | --- | --- | --- |
| C=CC(=O)N1CCN(c2nc(=O)n(-c3c(C)ccnc3C(C)C)c3nc(-c4c(O)cccc4F)c(F)cc23)C(C)C1 (stereo not drawn) | 25.5% [middle of 17 runs] | 23.7% [middle of 17 runs] | 25.1% [middle of 17 runs] | 24.4% [middle of 17 runs] | 23.8% [middle of 17 runs] |  |  |  | IC50 [1]: < 100 nM; IC50 [2]: < 100 nM; IC50 [3]: < 100 nM |
| C=CC(=O)N1CCN(c2nc(OCC3CCCN3C)nc3c2CCN(c2cccc4cccc(C)c24)C3)CC1CC#N (stereo not drawn) | 31.3% [middle of 16 runs] |  | 30.4% [middle of 17 runs] |  |  | 35.5% [middle of 17 runs] |  |  | IC50 [1]: < 31.6 nM; IC50 [2]: < 31.6 nM; IC50 [3]: < 31.6 nM |
| CC(=O)Nc1cccc(-n2c(=O)n(C3CC3)c(=O)c3c(Nc4ccc(I)cc4F)n(C)c(=O)c(C)c32)c1 |  |  |  |  |  | 15.6% [middle of 5 runs] | 38.5% [middle of 5 runs] | 2.56 nM [middle of 5 runs] | viability, T/C (compound 0.0001 µM): 80.8% [middle of 5 runs]; viability, T/C (compound 0.000316 µM): 63.3% [middle of 5 runs]; viability, T/C (compound 0.001 µM): 55.2% [middle of 5 runs]; viability, T/C (compound 0.00316 µM): 50.8% [middle of 5 runs] |
| CC(=O)OC12COC1CC(O)C1(C)C(=O)C(O)C3=C(C)C(OC(=O)C(O)C(NC(=O)OC(C)(C)C)c4ccccc4)CC(O)(C(OC(=O)c4ccccc4)C21)C3(C)C (stereo not drawn) | 63.3% [middle of 5 runs] | 63.1% [middle of 5 runs] | 73.7% [middle of 5 runs] | 70.1% [middle of 5 runs] |  | 57.6% [middle of 5 runs] | 67% [middle of 5 runs] |  |  |
| CC(C)NCC(C(=O)N1CCN(c2ncnc3c2C(C)CC3O)CC1)c1ccc(Cl)cc1 (stereo not drawn) | 83.4% [middle of 5 runs] | 65.9% [middle of 5 runs] | 71.3% [middle of 5 runs] |  | 72.5% [middle of 4 runs] | 101% [middle of 5 runs] |  | > 10000 nM and 1170 nM | outcome (compound 10 µM): active |
| CC(C)n1nc(-c2ccc3oc(N)nc3c2)c2c(N)ncnc21 |  |  |  |  |  |  |  |  | viability, T/C (compound 0.000316 µM): 98.5% [middle of 5 runs]; viability, T/C (compound 0.001 µM): 89.3% [middle of 5 runs] |
| CC1(C)CCC(CN2CCN(c3ccc(C(=O)NS(=O)(=O)c4ccc(NCC5CCOCC5)c([N+](=O)[O-])c4)c(Oc4cnc5[nH]ccc5c4)c3)CC2)=C(c2ccc(Cl)cc2)C1 | 94.7% [middle of 5 runs] | 87% [middle of 5 runs] | 89.9% [middle of 5 runs] | 45.9% [middle of 5 runs] | 12.4% [middle of 5 runs] | 98.2% [middle of 5 runs] |  | 2.84 µM [middle of 5 runs] |  |
| CC1COCCN1c1cc(-c2ccnn2C)c2ccnc(-c3ccn[nH]3)c2n1 (stereo not drawn) |  | 74% [middle of 5 runs] |  |  |  |  | 101% [middle of 5 runs] |  |  |
| CC1OCC2(CCN(c3cnc(Sc4ccnc(N)c4Cl)c(N)n3)CC2)C1N (stereo not drawn) | 56.3% [middle of 20 runs] | 38.5% [middle of 20 runs] |  | 21.6% [middle of 20 runs] | 15.5% [middle of 19 runs] | 81.9% and 81.1% and 73.7% |  | 163 nM [middle of 5 runs] | IC50 [3]: 134 nM [middle of 6 runs] |
| CCN1CCN(Cc2ccc(Nc3ncc(F)c(-c4cc(F)c5nc(C)n(C(C)C)c5c4)n3)nc2)CC1 | 71% [middle of 5 runs] | 70.9% [middle of 5 runs] | 65.2% [middle of 5 runs] |  |  | 76.9% [middle of 5 runs] | 93.7% [middle of 5 runs] | > 1000 nM | viability, T/C (compound 0.00316 µM): 97.6% [middle of 5 runs] |
| CCNC(=O)CC1N=C(c2ccc(Cl)cc2)c2cc(OC)ccc2-n2c(C)nnc21 (stereo not drawn) | 103% [middle of 5 runs] | 80.5% [middle of 5 runs] |  |  |  | 115% [middle of 5 runs] |  |  |  |
| CN(C)C/C=C/C(=O)Nc1cc2c(Nc3ccc(F)c(Cl)c3)ncnc2cc1O[C@H]1CCOC1 | 60.7% [middle of 5 runs] |  |  |  |  | 60.4% [middle of 5 runs] | 72.6% [middle of 5 runs] | > 100 nM | viability, T/C (compound 0.000316 µM): 100% [middle of 5 runs]; viability, T/C (compound 0.001 µM): 90.1% [middle of 5 runs] |
| COC(=O)c1ccc2c(C(=Nc3ccc(N(C)C(=O)CN4CCN(C)CC4)cc3)c3ccccc3)c(O)[nH]c2c1 | 91% [middle of 5 runs] |  | 90.2% [middle of 5 runs] | 93% [middle of 5 runs] | 94.1% [middle of 5 runs] |  |  | > 10000 nM |  |
| COc1cc(Nc2ncc3c(n2)-c2ccc(Cl)cc2C(c2c(F)cccc2OC)=NC3)ccc1C(=O)O |  | 74% [middle of 5 runs] |  | 67.6% [middle of 5 runs] | 48.9% [middle of 5 runs] | 92.8% [middle of 5 runs] |  |  |  |
| COc1cc(OC)cc(N(CCNC(C)C)c2ccc3ncc(-c4cnn(C)c4)nc3c2)c1 |  | 92.2% [middle of 5 runs] |  |  |  |  |  |  |  |
| COc1cc2nc(C)nc(NC(C)c3cc(N)cc(C(F)(F)F)c3)c2cc1OC1CCOC1 (stereo not drawn) |  | 71.1% [middle of 17 runs] |  |  |  |  |  |  | IC50 [1]: > 10000 nM and 2620 nM and 2850 nM; IC50 [2]: > 10000 nM; IC50 [3]: > 10000 nM |
| COc1cc2nccc(Oc3ccc(NC(=O)C4(C(=O)Nc5ccc(F)cc5)CC4)cc3)c2cc1OC | 78.3% [middle of 5 runs] | 75.1% [middle of 5 runs] | 67% [middle of 5 runs] |  |  | 92% [middle of 5 runs] |  | > 10000 nM |  |
| Cn1nccc1Nc1nccc(-c2cc3c(s2)C(C)(C)N(CCN2CCOCC2)C3=O)n1 | 89.5% [middle of 5 runs] | 74.6% [middle of 5 runs] | 53.3% [middle of 5 runs] | 37.5% [middle of 4 runs] | 30.1% [middle of 5 runs] | 95.8% [middle of 5 runs] |  | 1.25 µM [middle of 5 runs] |  |
| Cn1ncnc1[C@H]1c2n[nH]c(=O)c3cc(F)cc(c23)N[C@@H]1c1ccc(F)cc1 | 90.9% [middle of 5 runs] |  |  |  |  | 104% [middle of 5 runs] | 102% [middle of 5 runs] | > 100 nM | viability, T/C (compound 0.000316 µM): 99.5% [middle of 5 runs]; viability, T/C (compound 0.001 µM): 106% [middle of 5 runs]; viability, T/C (compound 0.00316 µM): 101% [middle of 5 runs] |
| O=C(c1cc(Cc2n[nH]c(=O)c3ccccc23)ccc1F)N1CCN(C(=O)C2CC2)CC1 | 99.1% [middle of 5 runs] | 98.6% [middle of 5 runs] | 93.1% [middle of 5 runs] | 93.5% [middle of 5 runs] | 97.9% [middle of 5 runs] | 103% [middle of 5 runs] |  | > 10000 nM |  |
